# Reference: the supplement of paper PMC9663587
# Legend:
# [1] = compound: CCc1cnn2c(NCc3ccc[n+]([O-])c3)cc(N3CCCC[C@H]3CCO)nc12; assay: increase in dead-cell fraction, 72 h; higher = more death;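 note: breast cancer cell lines in 384-well plates, stained with Hoechst plus LIVE/DEAD far red dye and imaged, cells above an LDR intensity threshold counted dead, Hoechst-negative corpses included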
# Neratinib/HKI272 [2] = compound: T1, CCOc1cc2ncc(C#N)c(Nc3ccc(OCc4ccccn4)c(Cl)c3)c2cc1NC(=O)/C=C/CN(C)C [Neratinib/HKI272]; assay: as above
# THZ531 [3] = compound: T2, CN(C)C/C=C/C(=O)Nc1ccc(C(=O)N2CCC[C@@H](Nc3ncc(Cl)c(-c4c[nH]c5ccccc45)n3)C2)cc1 [THZ531]; assay: as above
# BSJ-03-123 [4] = compound: T3, CC(=O)c1c(C)c2cnc(Nc3ccc(N4CCN(CCOCCOCCOCCNC(=O)COc5cccc6c5C(=O)N(C5CCC(=O)NC5=O)C6=O)CC4)cn3)nc2n(C2CCCC2)c1=O [BSJ-03-123]; assay: as above
# THZ1 = compound: CN(C)C/C=C/C(=O)Nc1ccc(C(=O)Nc2cccc(Nc3ncc(Cl)c(-c4c[nH]c5ccccc45)n3)c2)cc1 [THZ1]; assay: as above
# YKL-5-124 = compound: C=CC(=O)Nc1ccc(C(=O)Nc2[nH]nc3c2CN(C(=O)N[C@H](CN(C)C)c2ccccc2)C3(C)C)cc1 [YKL-5-124]; assay: as above
# BSJ-01-175 = compound: CN(C)C/C=C/C(=O)Nc1ccc(O[C@@H]2CCC[C@@H](Nc3ncc(Cl)c(-c4c[nH]c5ccccc45)n3)C2)cc1 [BSJ-01-175]
# Dasatinib = compound: Cc1nc(Nc2ncc(C(=O)Nc3c(C)cccc3Cl)s2)cc(N2CCN(CCO)CC2)n1 [Dasatinib]
# Doxorubicin = compound: COc1cccc2c1C(=O)c1c(O)c3c(c(O)c1C2=O)C[C@@](O)(C(=O)CO)C[C@@H]3O[C@H]1C[C@H](N)[C@H](O)[C@H](C)O1 [Doxorubicin]
# AZD2014 = compound: CNC(=O)c1cccc(-c2ccc3c(N4CCOC[C@@H]4C)nc(N4CCOC[C@@H]4C)nc3n2)c1 [AZD2014]
# [5] = compound: CC(=O)c1c(C)c2cnc(Nc3ccc(N4CCNCC4)cn3)nc2n(C2CCCC2)c1=O
# Neratinib/HKI272 [6] = compound: T1, Neratinib/HKI272
# Volasertib/BI6727 = compound: CC[C@@H]1C(=O)N(C)c2cnc(Nc3ccc(C(=O)N[C@H]4CC[C@H](N5CCN(CC6CC6)CC5)CC4)cc3OC)nc2N1C(C)C [Volasertib/BI6727]
# Taselisib/GDC0032 = compound: Cc1nc(-c2cn3c(n2)-c2ccc(-c4cnn(C(C)(C)C(N)=O)c4)cc2OCC3)n(C(C)C)n1 [Taselisib/GDC0032]
# [7] = compound: CO[C@@H](C)Cn1c(=O)n(C)c2cnc3ccc(-c4cncc(C(C)(C)O)c4)cc3c21
# Rucaparib = compound: CNCc1ccc(-c2[nH]c3cc(F)cc4c3c2CCNC4=O)cc1 [Rucaparib]
# THZ531 [8] = compound: T2, THZ531
# BSJ-03-123 [9] = compound: T3, BSJ-03-123
# [10] = compound: CC(=O)Nc1cccc(-n2c(=O)n(C3CC3)c(=O)c3c(Nc4ccc(I)cc4F)n(C)c(=O)c(C)c32)c1
# Ceritinib/LDK378 = compound: Cc1cc(Nc2ncc(Cl)c(Nc3ccccc3S(=O)(=O)C(C)C)n2)c(OC(C)C)cc1C1CCNCC1 [Ceritinib/LDK378]
# Vorinostat = compound: O=C(CCCCCCC(=O)Nc1ccccc1)NO [Vorinostat]
# INK128/MLN0128 = compound: CC(C)n1nc(-c2ccc3oc(N)nc3c2)c2c(N)ncnc21 [INK128/MLN0128]
# 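Throughout, for GR50, 72 h: breast cancer and non-malignant breast epithelial cell lines, Deep Dye Drop or Dye Drop imaging, nine half-log doses, GR normalized to time-zero plates and DMSO-only controls.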
cell line,measurement,setting,value
HCC38,increase in dead-cell fraction,[1]; 0.0001 µM,-0.0032
same,increase in dead-cell fraction,[1]; 0.0003162 µM,-0.0125
same,increase in dead-cell fraction,[1]; 0.001 µM,-0.0108
same,increase in dead-cell fraction,[1]; 0.003162 µM,-0.0127
same,increase in dead-cell fraction,[1]; 0.01 µM,0.0353
same,increase in dead-cell fraction,[1]; 0.03162 µM,0.436
same,increase in dead-cell fraction,[1]; 0.1 µM,0.514
same,increase in dead-cell fraction,[1]; 0.3162 µM,0.511
same,increase in dead-cell fraction,[1]; 1 µM,0.536
same,increase in dead-cell fraction,Neratinib/HKI272 [2]; 0.0003162 µM,0.0178
same,increase in dead-cell fraction,Neratinib/HKI272 [2]; 0.001 µM,0.006
same,increase in dead-cell fraction,Neratinib/HKI272 [2]; 0.003162 µM,0.0166
same,increase in dead-cell fraction,Neratinib/HKI272 [2]; 0.01 µM,0.0088
same,increase in dead-cell fraction,Neratinib/HKI272 [2]; 0.03162 µM,0.0102
same,increase in dead-cell fraction,Neratinib/HKI272 [2]; 0.1 µM,-0.0035
same,increase in dead-cell fraction,Neratinib/HKI272 [2]; 0.3162 µM,0.0102
same,increase in dead-cell fraction,Neratinib/HKI272 [2]; 1 µM,0.0009
same,increase in dead-cell fraction,Neratinib/HKI272 [2]; 3.162 µM,0.0842
same,increase in dead-cell fraction,THZ531 [3]; 0.0001 µM,-0.0063
same,increase in dead-cell fraction,THZ531 [3]; 0.0003162 µM,0.0002
same,increase in dead-cell fraction,THZ531 [3]; 0.001 µM,0.0018
same,increase in dead-cell fraction,THZ531 [3]; 0.003162 µM,0.0016
same,increase in dead-cell fraction,THZ531 [3]; 0.01 µM,-0.0096
same,increase in dead-cell fraction,THZ531 [3]; 0.03162 µM,0.0087
same,increase in dead-cell fraction,THZ531 [3]; 0.1 µM,0.0251
same,increase in dead-cell fraction,THZ531 [3]; 0.3162 µM,0.156
same,increase in dead-cell fraction,THZ531 [3]; 1 µM,0.327
same,increase in dead-cell fraction,BSJ-03-123 [4]; 0.001 µM,0.0173
same,increase in dead-cell fraction,BSJ-03-123 [4]; 0.003162 µM,0.0254
same,increase in dead-cell fraction,BSJ-03-123 [4]; 0.01 µM,0.0387
same,increase in dead-cell fraction,BSJ-03-123 [4]; 0.03162 µM,0.0378
same,increase in dead-cell fraction,BSJ-03-123 [4]; 0.1 µM,0.0296
same,increase in dead-cell fraction,BSJ-03-123 [4]; 0.3162 µM,0.0344
same,increase in dead-cell fraction,BSJ-03-123 [4]; 1 µM,0.0408
same,increase in dead-cell fraction,BSJ-03-123 [4]; 3.162 µM,0.0384
same,increase in dead-cell fraction,BSJ-03-123 [4]; 10 µM,0.172
same,increase in dead-cell fraction,THZ1; 0.0001 µM,-0.0033
same,increase in dead-cell fraction,THZ1; 0.0003162 µM,-0.0036
same,increase in dead-cell fraction,THZ1; 0.001 µM,-0.0076
same,increase in dead-cell fraction,THZ1; 0.003162 µM,-0.0032
same,increase in dead-cell fraction,THZ1; 0.01 µM,0.0133
same,increase in dead-cell fraction,THZ1; 0.03162 µM,0.0431
same,increase in dead-cell fraction,THZ1; 0.1 µM,0.249
same,increase in dead-cell fraction,THZ1; 0.3162 µM,0.303
same,increase in dead-cell fraction,THZ1; 1 µM,0.593
same,increase in dead-cell fraction,YKL-5-124; 0.001 µM,0.0525
same,increase in dead-cell fraction,YKL-5-124; 0.003162 µM,0.0845
same,increase in dead-cell fraction,YKL-5-124; 0.01 µM,0.102
same,increase in dead-cell fraction,YKL-5-124; 0.03162 µM,0.109
same,increase in dead-cell fraction,YKL-5-124; 0.1 µM,0.115
same,increase in dead-cell fraction,YKL-5-124; 0.3162 µM,0.184
same,increase in dead-cell fraction,YKL-5-124; 1 µM,0.197
same,increase in dead-cell fraction,YKL-5-124; 3.162 µM,0.147
same,increase in dead-cell fraction,YKL-5-124; 10 µM,0.407
same,"GR50, 72 h",BSJ-01-175,0.13 µM
same,"GR50, 72 h",Dasatinib,5.69 µM
same,"GR50, 72 h",Doxorubicin,0.00955 µM
same,"GR50, 72 h",AZD2014,0.452 µM
same,"GR50, 72 h",[5],0.0597 µM
same,"GR50, 72 h",Neratinib/HKI272 [6],3.15 µM
same,"GR50, 72 h",Volasertib/BI6727,0.00822 µM
same,"GR50, 72 h",Taselisib/GDC0032,2.7 µM
same,"GR50, 72 h",[7],0.00435 µM
same,"GR50, 72 h",Rucaparib,> 10 µM
same,"GR50, 72 h",THZ531 [8],0.177 µM
same,"GR50, 72 h",BSJ-03-123 [9],0.0453 µM
same,"GR50, 72 h",[10],0.22 µM
same,"GR50, 72 h",Ceritinib/LDK378,1.83 µM
same,"GR50, 72 h",Vorinostat,0.96 µM
same,"GR50, 72 h",INK128/MLN0128,0.0191 µM
SKBR3,increase in dead-cell fraction,[1]; 0.0001 µM,0.0102
same,increase in dead-cell fraction,[1]; 0.0003162 µM,0.0115
same,increase in dead-cell fraction,[1]; 0.001 µM,0.0049
same,increase in dead-cell fraction,[1]; 0.003162 µM,0.011
same,increase in dead-cell fraction,[1]; 0.01 µM,0.303
same,increase in dead-cell fraction,[1]; 0.03162 µM,0.574
same,increase in dead-cell fraction,[1]; 0.1 µM,0.595
same,increase in dead-cell fraction,[1]; 0.3162 µM,0.612
same,increase in dead-cell fraction,[1]; 1 µM,0.583
same,increase in dead-cell fraction,Neratinib/HKI272 [2]; 0.0003162 µM,0.0178
same,increase in dead-cell fraction,Neratinib/HKI272 [2]; 0.001 µM,0.0381
same,increase in dead-cell fraction,Neratinib/HKI272 [2]; 0.003162 µM,0.111
same,increase in dead-cell fraction,Neratinib/HKI272 [2]; 0.01 µM,0.156
same,increase in dead-cell fraction,Neratinib/HKI272 [2]; 0.03162 µM,0.222
same,increase in dead-cell fraction,Neratinib/HKI272 [2]; 0.1 µM,0.24
same,increase in dead-cell fraction,Neratinib/HKI272 [2]; 0.3162 µM,0.303
same,increase in dead-cell fraction,Neratinib/HKI272 [2]; 1 µM,0.362
same,increase in dead-cell fraction,Neratinib/HKI272 [2]; 3.162 µM,0.364
same,increase in dead-cell fraction,THZ531 [3]; 0.0001 µM,0.0012
same,increase in dead-cell fraction,THZ531 [3]; 0.0003162 µM,0.0021
same,increase in dead-cell fraction,THZ531 [3]; 0.001 µM,0.0015
same,increase in dead-cell fraction,THZ531 [3]; 0.003162 µM,-0.0089
same,increase in dead-cell fraction,THZ531 [3]; 0.01 µM,-0.0005
same,increase in dead-cell fraction,THZ531 [3]; 0.03162 µM,0.053
same,increase in dead-cell fraction,THZ531 [3]; 0.1 µM,0.155
same,increase in dead-cell fraction,THZ531 [3]; 0.3162 µM,0.175
same,increase in dead-cell fraction,THZ531 [3]; 1 µM,0.338
same,increase in dead-cell fraction,BSJ-03-123 [4]; 0.001 µM,-0.001
same,increase in dead-cell fraction,BSJ-03-123 [4]; 0.003162 µM,0.0008
same,increase in dead-cell fraction,BSJ-03-123 [4]; 0.01 µM,0.0041
same,increase in dead-cell fraction,BSJ-03-123 [4]; 0.03162 µM,-0.0049
same,increase in dead-cell fraction,BSJ-03-123 [4]; 0.1 µM,0.0076
same,increase in dead-cell fraction,BSJ-03-123 [4]; 0.3162 µM,-0.0004
same,increase in dead-cell fraction,BSJ-03-123 [4]; 1 µM,0.0088
same,increase in dead-cell fraction,BSJ-03-123 [4]; 3.162 µM,0.0136
same,increase in dead-cell fraction,BSJ-03-123 [4]; 10 µM,0.15
same,increase in dead-cell fraction,THZ1; 0.0001 µM,-0.0092
same,increase in dead-cell fraction,THZ1; 0.0003162 µM,0.0042
same,increase in dead-cell fraction,THZ1; 0.001 µM,0.0058
same,increase in dead-cell fraction,THZ1; 0.003162 µM,-0.0046
same,increase in dead-cell fraction,THZ1; 0.01 µM,-0.0004
same,increase in dead-cell fraction,THZ1; 0.03162 µM,0.0505
same,increase in dead-cell fraction,THZ1; 0.1 µM,0.237
same,increase in dead-cell fraction,THZ1; 0.3162 µM,0.33
same,increase in dead-cell fraction,THZ1; 1 µM,0.491
same,increase in dead-cell fraction,YKL-5-124; 0.001 µM,0.0064
same,increase in dead-cell fraction,YKL-5-124; 0.003162 µM,0.0231
same,increase in dead-cell fraction,YKL-5-124; 0.01 µM,0.0496
same,increase in dead-cell fraction,YKL-5-124; 0.03162 µM,0.0434
same,increase in dead-cell fraction,YKL-5-124; 0.1 µM,0.0537
same,increase in dead-cell fraction,YKL-5-124; 0.3162 µM,0.0626
same,increase in dead-cell fraction,YKL-5-124; 1 µM,0.0336
same,increase in dead-cell fraction,YKL-5-124; 3.162 µM,0.0844
same,increase in dead-cell fraction,YKL-5-124; 10 µM,0.316
same,"GR50, 72 h",BSJ-01-175,0.00832 µM
same,"GR50, 72 h",Dasatinib,3.65 µM
same,"GR50, 72 h",Doxorubicin,0.00673 µM
same,"GR50, 72 h",AZD2014,< 0.001 µM
same,"GR50, 72 h",[5],0.176 µM
same,"GR50, 72 h",Neratinib/HKI272 [6],0.00165 µM
same,"GR50, 72 h",Volasertib/BI6727,0.00545 µM
same,"GR50, 72 h",Taselisib/GDC0032,0.00617 µM
same,"GR50, 72 h",[7],0.00188 µM
same,"GR50, 72 h",Rucaparib,> 10 µM
same,"GR50, 72 h",THZ531 [8],0.0273 µM
same,"GR50, 72 h",BSJ-03-123 [9],1.02 µM
same,"GR50, 72 h",[10],> 1 µM
same,"GR50, 72 h",Ceritinib/LDK378,0.985 µM
same,"GR50, 72 h",Vorinostat,0.767 µM
same,"GR50, 72 h",INK128/MLN0128,0.00265 µM
